Laboratory results reported in US20180265423A1, “Pesticide Dispersion in Concentrated Aqueous Fertilizer Solution” (priority 2014, published 2018).
Where two headings read alike, the source gives them in different places.

Tests used:
[1] = Use alone, dilution with water or dispersion of the suspensions into fertilizer concentrates; assay type: physicochemical; conditions: 10-34-0, URAN 32, URAN 28 and 28-40% AMS
[2] = assay type: physicochemical; conditions: for crystal growth in the fertilizer solutions tested: review of table 2
From the text: Crystal formation in a suspension concentrate is a complex phenomenon. It is believed that if the solubility of the suspended solid chemical is high in the medium, the suspension concentrate is prone to form crystals of the suspended solid chemical in storage. […] The concentrations of the solid pesticides used in this example were low (at a typical ready-to-apply concentration range). If a solid pesticide forms crystals in such a low concentration, it is not suitable for a ready-to-apply pesticide suspension and mostly likely will not be suitable for a more concentrated suspension in fertilizer. […] By “not suitable” is meant that although it may work to some extent, it is not a good candidate for the pesticide SC.
Samples were prepared by adding the components followed by hand-shaking.

[3] = 30 wt % captan suspension in 10-34-0: flow and storage stability (Example 12); assay type: physicochemical
Method: 10-34-0 fertilizer (56% ammonium polyphosphate by Plant Food Company Inc.) and Phospholan PS-413 surfactant were combined in a container and mixed thoroughly. Captan fungicide was added to the mixture and then the resulting combination was homogenized. The components were added in amounts to provide a composition containing 69.3 wt % of the 10-34-0 fertilizer solution (56% solution), 1.0 wt % surfactant and 29.7 wt % Captan fungicide.

[4] = Quick screening of crystal growth potential in fertilizer concentrates and water, solid pesticides containing a carboxylic acid group (Example 2); assay type: physicochemical; conditions: for suitability for suspension in fertilizer solutions: review of table 3; for Comment: crystal growth: between 0 C. and 40 C.
Method: Samples were prepared by adding the components followed by hand-shaking. Samples were placed at 0° C. and observation was made after 1 day, unless otherwise specified.

[5] = as above; assay type: physicochemical; conditions: 1 wt % powder pesticide, 98 wt % 10-34-0, 1 wt % Witcolate D-510; between 0 C. and 40 C.
[6] = assay type: physicochemical
Method: 10-34-0 fertilizer (56% ammonium poly phosphate by Plant Food Company Inc.) and Phospholan HE-6614 surfactant were combined in a container and mixed thoroughly. Trifloxystrobin fungicide was added to the mixture and then the resulting combination was homogenized. The components were added in amounts to provide a composition containing 62.38 wt % of the 10-34-0 fertilizer solution (56% solution), 1.0 wt % surfactant and […] Trifloxystrobin fungicide.

[7] = Study of additional surfactants in 10-34-0, 27-4-0 and diluted 10-34-0 fertilizers (Example 8); assay type: physicochemical
[8] = Stability of 50% clothianidin in 50% URAN 32 fertilizer (Example 6); assay type: physicochemical; conditions: 0.5 g in 100 g URAN 32 fertilizer solution
Method: 0.5 g Witcolate D-510 surfactant was added into 100 g URAN 32 fertilizer solution (50 wt % URAN 32 in water). […] Then 100 g clothianidin was added to the resulting solution and mixed well by hand-shaking. This sample was stable and had about 10% top clear with a smooth bottom suspension after 2 weeks at 40° C.
In other experiments, 0.3% of a pH adjusting agent (40 wt % Citric acid), was included in the SC sample (homogenized sample) and no noticeable effect was observed on stability. Viscosity measurements were made with a Brookfield viscometer at various speeds (rpm) at room temperature with a #64 spindle. This sample was very viscous but it was highly shear-thinning.

[9] = Storage stability of 40% clothianidin SC in 10-34-0 with wetting agent Witcolate D-510 (Example 5); assay type: physicochemical; conditions: clothianidin suspension in 10-34-0
Method: The test samples were prepared by adding 60 grams of 10-34-0 fertilizer (from Plant Food) to a bottle. Then various amounts of Witcolate D-510 (2-ethylhexyl sulfate) were added to the 10-34-0 fertilizer and mixed well. Finally, 40 grams of clothianidin (technical grade) was added to the mixture and mixed well by shaking by hand.

[10] = 1 wt % powder pesticide in 99 wt % 10-34-0, no wetting agent
[11] = 1 wt % powder pesticide in 99 wt % 40% AMS, no wetting agent
[12] = 1 wt % powder pesticide in 99 wt % URAN 32, no wetting agent
[13] = 1 wt % powder pesticide in 99 wt % Water, no wetting agent
[14] = same SC, after a week at 50° C.
[15] = 1 wt % powder pesticide, 98 wt % 10-34-0, 1 wt % Witcolate D-510
[16] = powder pesticide (glyphosate acid 2, 2,4-D acid 1.3, others 1 wt %) in 10-34-0, no wetting agent
[17] = powder pesticide (glyphosate acid 2, 2,4-D acid 1.3, others 1 wt %) in 10-34-0, no wetting agent, 0° C., 1 day unless otherwise specified
[18] = powder pesticide (glyphosate acid 2, 2,4-D acid 1.3, others 1 wt %) in 40% AMS, no wetting agent, 0° C., 1 day unless otherwise specified
[19] = powder pesticide (glyphosate acid 2, 2,4-D acid 1.3, others 1 wt %) in URAN 32, no wetting agent, 0° C., 1 day unless otherwise specified
[20] = 1 wt % powder pesticide, 98 wt % 40% AMS, 1 wt % Witcolate D-510
[21] = 1 wt % powder pesticide, 98 wt % URAN 32, 1 wt % Witcolate D-510
[22] = 1 wt % powder pesticide, 98 wt % Water, 1 wt % Witcolate D-510

O=C1C2CC=CCC2C(=O)N1SC(Cl)(Cl)Cl (stereo not drawn) [Captan]
used alone, diluted with water, dispersed to a fertilizer concentrate ([1]; 29.7 wt % Captan SC in 10-34-0, gentle stirring): without forming crystals or coagulation | Comment: powder sank or floated [2, 10]: 0-40 °C Powder sank. | Comment: suitability [2, 10]: Suitable | Comment: powder sank or floated [2, 11]: 0-40 °C Powder sank. | Comment: suitability [2, 11]: Suitable | Comment: powder sank or floated [2, 12]: 0-40 °C Powder sank. | Comment: suitability [2, 12]: Suitable | Comment: powder sank or floated [2, 13]: 0-40 °C Powder sank. | Comment: suitability [2, 13]: Suitable | crystal growth in the fertilizer solutions tested [2]: did not have crystal growth | flow and stability of the resulting SC ([3]; 29.7 wt % Captan, 69.3 wt % 10-34-0 solution, 1.0 wt % Phospholan PS-413, homogenized): easily flowable and stable | flow at 2° C. ([3]; same SC, 2° C.): still able to flow | phase separation [3, 14]: no visible phase separation

O=C(O)c1nc(Cl)ccc1Cl [Clopyralid]
Comment: suitability [4, 15]: Suitable | Comment: suitability [4, 16]: Suitable | Comment: crystal growth or other change [4, 17]: No crystal growth | Comment: dissolution [4, 17]: Not dissolved | Comment: powder sank or floated [4, 17]: Powder floated | Comment: crystal growth or other change [4, 18]: Crystal growth at room temp | Comment: dissolution [4, 18]: Not dissolved | Comment: powder sank or floated [4, 18]: Powder sank | Comment: suitability ([4]; powder pesticide (glyphosate acid 2, 2,4-D acid 1.3, others 1 wt %) in URAN 32, no wetting agent): Not suitable | Comment: dissolution [4, 19]: Dissolved | Comment: suitability ([4]; powder pesticide (glyphosate acid 2, 2,4-D acid 1.3, others 1 wt %) in Water, no wetting agent): Not suitable | Comment: dissolution ([4]; powder pesticide (glyphosate acid 2, 2,4-D acid 1.3, others 1 wt %) in Water, no wetting agent, 0° C., 1 day unless otherwise specified): Dissolved | suitability for suspension in fertilizer solutions [4]: may not be suitable | Comment: crystal growth [5]: No crystal growth between 0 C.

Nc1c(Cl)c(Cl)nc(C(=O)O)c1Cl [Picloram]
Comment: suitability [4, 15]: some floated. Suitable | Comment: powder sank or floated [4, 20]: Powder sank | Comment: suitability [4, 20]: Suitable | Comment: crystal growth [4, 20]: No crystal growth between 0 C. | Comment: powder sank or floated [4, 21]: Powder sank | Comment: suitability [4, 21]: Suitable | Comment: crystal growth [4, 21]: No crystal growth between 0 C. | Comment: powder sank or floated [4, 22]: Powder sank | Comment: suitability [4, 22]: Suitable | Comment: crystal growth [4, 22]: No crystal growth between 0 C. | Comment: suitability [4, 16]: Suitable | Comment: crystal growth or other change [4, 17]: No crystal growth between 0 C. | Comment: powder sank or floated [4, 17]: Powder sank | Comment: suitability ([4]; powder pesticide (glyphosate acid 2, 2,4-D acid 1.3, others 1 wt %) in 40% AMS, no wetting agent): Suitable | Comment: crystal growth or other change [4, 18]: No crystal growth between 0 C. | Comment: powder sank or floated [4, 18]: Powder sank | Comment: dissolution [4, 19]: Powder almost dissolved | suitability for suspension in fertilizer solutions [4]: appears to be suitable | Comment: crystal growth [5]: No crystal growth between 0 C.

CON=C(C(=O)OC)c1ccccc1CON=C(C)c1cccc(C(F)(F)F)c1 [Trifloxystrobin]
used alone, diluted with water, dispersed to a fertilizer concentrate ([1]; 36.63 wt % Trifloxystrobin SC in 10-34-0): without forming crystal and coagulation | flow and stability of the resulting SC [6]: easily flowable and stable | flow at 2° C. ([6]; same SC, 2° C.): still able to flow | clear phase at the bottom [6, 14]: less than 2.5% | re-mixing ([6]; same SC, after a week at 50° C., inverting the container): remixed easily | Comment: powder sank or floated [2, 10]: 0-40 °C Powder sank. | Comment: suitability [2, 10]: Suitable | Comment: powder sank or floated [2, 11]: 0-40 °C Powder sank. | Comment: suitability [2, 11]: Suitable | Comment: powder sank or floated [2, 12]: 0-40 °C Powder sank. | Comment: suitability [2, 12]: Suitable | Comment: powder sank or floated [2, 13]: 0-40 °C Powder sank. | Comment: suitability [2, 13]: Suitable | crystal growth in the fertilizer solutions tested [2]: did not have crystal growth

CCCCC(CC)COS(=O)(=O)[O-].[Na+] (stereo not drawn) [Witcolate D510, 2-ethylhexyl sulfate]
Appearance ([7]; 27-4-0 76.6, surfactant 23.4 wt): Clear | dissolution of surfactant in URAN 32 [8]: dissolved in URAN 32 readily

C4-C6 phosphate ester with less than 7EO units (acid form)
surfactant in place of Witcolate D-510 to produce similar clothianidin suspensions [9]: suitable

Sodium C810 sulfate [Sodium C810 sulfate (40%)]
Appearance ([7]; 10-34-0 56.1, Water 30.7, surfactant 13.2 wt): Clear | Appearance ([7]; 27-4-0 81.2, surfactant 18.8 wt): Clear

Sodium Laureth-2 sulfate [Witconate ES-2]
Appearance ([7]; 27-4-0 91.3, surfactant 8.7 wt): Clear
